This note sets out measurements from PMC8672821, “Investigating 3,3-diaryloxetanes as potential bioisosteres through matched molecular pair analysis” (RSC Medicinal Chemistry, 2021).

Series [1] in a line: Chemical (pH) stability assay. Particulars: low pH (1.2), 37 °C, up to 4 h. Format: physicochemical. The procedure: (§1) elogD: An automated reversed phase-HPLC method developed by Lombardo et al. was used for logD (pH 7.4) measurements. All the chromatographic runs were performed on a HP -1100 HPLC ChemStation at the ambient temperature. The HPLC columns used were Supelcosil LC-ABZ, 5 µm, 4.6 mm × 50 mm. A diode array detector was used to monitor signals at 210, 225, 245, and 310 nm. The mobile phase consisted of 15−75% of A and 85−25% of B.
(§2) Mobile phase A: methanol with addition of 0.25% 1-octanol.
(§3) Mobile phase B: 20 mM of MOPS (morpholine−propane−sulfonic acid) buffer prepared in octanol saturated water and 0.25% of n-decylamine.
(§4) Samples were prepared in 1:1 mixture of methanol/water at 100 μg/mL concentration.
The retention of each compound is obtained at three different concentrations of methanol in the mobile phase and extrapolated to 0% methanol (100% water).
(§5) HLM Assay: The high throughput human microsomal stability assay was performed in a 384 -well format.
All liquid handling and incubation were conducted with a Biomek FX, equipped with one 3 position Mecour heat exchangers. Pooled human liver microsomes of 50 don ors (Lot: HLM-103) were purchased from BioIVT. […]
Assay ready plated: Plate containing 6µL at 30 mM of test compounds in 96 deep well plate (volume = 600 µL). […]

Series [2] can be described thus: elogD, automated reversed phase-HPLC logD (pH 7.4). Format: physicochemical. Particulars: Supelcosil LC-ABZ column. The protocol: as §1, §2, §3, §4
The retention of each compound is obtained at three different concentrations of methanol in the mobile phase and extrapolated to 0% methanol (100% water). […]

Series [3] is described as follows: RRCK passive permeability assay. Format: in vitro ADME, canine. Particulars: dog, MDCK; read-out: RRCK cell permeability. The procedure:
Aqueous buffer preparation: pH 3: 50 µL of 1N hydrochloric acid was added to 500 mL of deionized water.
The solution was titrated with 1N hydrochloric acid to pH 3, and back titrated with 1N sodium hydroxide. pH 7.4: 100 mM sodium phosphate buffer is made by adding 56.4 g of dibasic sodium phosphate and 10.3 g of monobasic sodium phosphate to 4 L of deionized water. 250 µL of 100 mM sodium phosphate buffer was diluted with 250 µL of deionized water. The solution was titrated with 1N hydrochloric acid to pH 7.4, and back titrated with 1N sodium hydroxide. pH 10: Fisher Scientific pH 10 buffer (SB116-500) containing potassium hydroxide, potassium carbonate, and potassium borate. pH 12.8: 30 mL of 1N NaOH was added to 200 mL of deionized water. The solution was titrated with 1N sodium hydroxide to pH 12.8, and back titrated with 1N hydrochloric acid.
RRCK: Passive permeability assay were carried out using low‐efflux MDCKII cells (Madin–Darby canine kidney cell line) also called Ralph Russ Canine Kidney cell (RRCK).11

Series [4] is described as follows: Clearance by human liver microsomes (HLM) stability assay. Format: in vitro ADME. The conditions noted are these: pH 7.4; pooled human liver microsomes, 1 µM test compound, 37 °C. The protocol:
as §5
All liquid handling and incubation were conducted with a Biomek FX, equipped with one 3 position Mecour heat exchangers. Pooled human liver microsomes of 50 don ors (Lot: HLM-103) were purchased from BioIVT. Each incubation contained test compound (1 µM), human liver microsomes ([…] CYP protein equivalent to 0.806 mg/mL protein concentration), NADPH (1.3 mM), MgCl 2 (3.3 mM) and potassium phosphate buffer (100 mM at pH 7.4). The final reaction volume was […] containing 0.01% DMSO. The incubations were conducted at 37 °C at various time points (1, 4, 7, 12, 20, 25, 45, 60 min). Cold acetonitrile with mass spectrometry (MS) internal standard (IS, CP-628374) was then added to quench the reaction.
The plates were centrifuged at 3000 rpm for 10 min at 4 °C (Sorvall RC 3C Plus, Thermo Scienti fic, Waltham, MA). The water layer was transferred to the 384 -well plate, sealed and subsequently analy sed using LCeMS/MS. Control plates were prepared in the same manner without adding the NADPH cofactor to monitor any non-CYP catalysed decline. Propranolol (2D6, 1A2 and 2C19 substrate), quinidine (3A4), diclofenac (2C9), verapamil (3A4, 1A2, 2C), amitriptyline (2D6, 2C19) and naloxone (UGT2B7) were used as positive controls on each plate to monitor the activities of the various CYPs in the assay. […]
In general terms: Microsomes from liver hold many membrane-bound enzymes, among them those of drug oxidation.

Broadly, the chromatographic logD is lipophilicity estimated from chromatographic retention. Low readings indicate lower lipophilicity, high ones higher lipophilicity. Usually melting point stands for the temperature, or range, at which the solid turns liquid. A word on the logD: it is the decadic logarithm of the distribution of all forms, ionised or not, between an organic phase and buffer at a given pH. On to `Cc1cc(C2(c3cn(C)c4ccccc34)COC2)ccc1O` [5a], for which the melting point lay in the range of 233 to 235 °C. Further, the “chemical stability (% compound remaining), in words” value in series [1] is recorded as “poorer stability at low pH”. Moreover, the chromatographic logD in series [2] came out at 3.73. The logD in “sfLogD” is 3.63.
`Cc1cc(C(=O)c2cn(C)c3ccccc23)ccc1O` [5b]: the melting point lay in the range of 239 to 241 °C. For the same compound, in series [1], the “chemical stability (% compound remaining), in words” value is listed as “poorer stability at low pH”. This compound returned a chromatographic logD in series [2] of 3.3. In the series “sfLogD”, the logD was 3.33.
Regarding `Cc1cc(Cc2cn(C)c3ccccc23)ccc1O` [5c], the melting point is 77 to 79 °C. The same compound came in with a chromatographic logD in series [2] of 4.78. In addition, the Papp in series [3] was found to be 0.1 ×10⁻⁶ cm/s. Further, the logD in the series “sfLogD” was found to be 2.79.
The like results for `Cc1cc(C2(c3cn(C)c4ccccc34)CCC2)ccc1O` [5e] were, in that order, 120 to 121 °C, 5.4, 0.1 ×10⁻⁶ cm/s and 4.4.
As usually defined, the microsomal CLint is the capacity of the preparation to metabolise the compound, expressed as a volume cleared per time. Compound `Cc1cc(C2(c3cn(C)c4ccccc34)COC2)ccc1O` [C00001] displayed a microsomal CLint at 1 h, 1 µM in series [4] of 22.9 µL/min/mg.
On the same count and under the same terms, under `Cc1cc(C(=O)c2cn(C)c3ccccc23)ccc1O` [C00002] stands 18 µL/min/mg.
Take `Cc1cc(C2(c3cn(C)c4ccccc34)COC2)ccc1OC1CNC1` [C00003]: the microsomal CLint at 1 µM in series [4] is < 7 µL/min/mg.
On the same count and under the same terms, under `Cc1cc(C(=O)c2cn(C)c3ccccc23)ccc1OC1CNC1` [C00004] stands < 7 µL/min/mg.
Consider `COc1ccc(C2(c3ccc(O)c(C)c3)COC2)cc1` [C00005], for which the microsomal CLint at 1 h, 1 µM in series [4] amounted to 80 µL/min/mg.
Still for that read-out and setting: the figure for `COc1ccc(C(=O)c2ccc(O)c(C)c2)cc1` [C00006] is 77.4 µL/min/mg.
The same measure, in the same setting: under `COc1ccc(C2(c3ccc(OC4CNC4)c(C)c3)COC2)cc1` [C00007] stands 7.5 µL/min/mg.
The same measure, in the same setting: under `COc1ccc(C(=O)c2ccc(OC3CNC3)c(C)c2)cc1` [C00008] stands 75 µL/min/mg; under `Cc1cc(C2(c3cn(C)c4ccccc34)COC2)ccc1-c1cnc(C(F)(F)F)nc1` [C00009], 8.5 µL/min/mg.
As to `Cc1cc(C(=O)c2cn(C)c3ccccc23)ccc1-c1cnc(C(F)(F)F)nc1` [C00010], the microsomal CLint at 1 µM in series [4] is < 7 µL/min/mg.
